Laboratory results from patent publication US20240150377A1, “MODULATORS OF CYSTIC FIBROSIS TRANSMEMBRANE CONDUCTANCE REGULATOR” (VERTEX PHARMACEUTICALS INCORPORATED, priority 2020, published 2024).
Where two headings read alike, the source gives them in different places.

Molecular target: CFTR (Homo sapiens, UniProt P13569)
Assay: Membrane potential dye, Enteroid Assay A
Type: cell-based
Conditions: for Ent. A Max Activity: chloride transport as % of triple combination control (Enteroid Assay A); for EC50: human enteroid cells, 18-24 hours, acute 10 μM forskolin and 300 nM ivacaftor, read-out: Ent. A EC50
Description: Base medium (ADF+++) consisted of Advanced DMEM/Ham's F12, 2 mM Glutamax, 10 mM HEPES, […] penicillin/streptomycin.
Intestinal enteroid maintenance medium (IEMM) consisted of ADF+++, 1× B27 supplement, 1× N2 supplement, 1.25 mM N-acetyl cysteine, 10 mM Nicotinamide, 50 ng/mL hEGF, 10 nM Gastrin, 1 μg/mL hR-spondin-1, 100 ng/mL hNoggin, TGF-b type 1 inhibitor A-83-01, 100 μg/mL Primocin, 10 μM P38 MAPK inhibitor SB202190.
Bath 1 Buffer consisted of 1 mM MgCl2, 160 mM NaCl, 4.5 mM KCl, 10 mM HEPES, 10 mM Glucose, 2 mM CaCl2).
Chloride Free Buffer consisted of 1 mM Magnesium Gluconate, 2 mM Calcium Gluconate, 4.5 mM Potassium Gluconate, 160 mM Sodium Gluconate, 10 mM HEPES, 10 mM Glucose.
BathI Dye Solution consisted of Bath 1 Buffer, 0.04% Pluronic F127, 20 μM Methyl Oxonol, 30 μM CaCCinh-A01, 30 μM Chicago Sky Blue.
Chloride Free Dye Solution consisted of Chloride Free Buffer, 0.04% Pluronic F127, 20 μM Methyl Oxonol, 30 μM CaCCinh-A01, 30 μM Chicago Sky Blue.
Chloride Free Dye Stimulation Solution consisted of Chloride Free Dye Solution, 10 μM forskolin, 100 μM IBMX, and 300 nM Compound III.
Human intestinal epithelial enteroid cells were obtained from the Hubrecht Institute for Developmental Biology and Stem Cell Research, Utrecht, The Netherlands and expanded in T-Flasks as previously described (Dekkers J F, Wiegerinck C L, de Jonge H R, Bronsveld I, Janssens H M, de Winter-de Groot K M, Brandsma A M, de Jong N W M, Bijvelds M J C, Scholte B J, Nieuwenhuis E E S, van den Brink S, Clevers H, van der Ent C K, Middendorp S and M Beekman J M. A functional CFTR assay using primary cystic fibrosis intestinal organoids. Nat Med. 2013 July;19(7):939-45.).
3. Enteroid Cell Harvesting and Seeding
Cells were recovered in cell recovery solution, collected by centrifugation at 650 rpm for 5 min at 4° C., resuspended in TrypLE and incubated for 5 min at 37° C. Cells were then collected by centrifugation at 650 rpm for 5 min at 4° C. and resuspended in IEMM containing 10 μM ROCK inhibitor (RI). The cell suspension was passed through a 40 μm cell strainer and resuspended at 1×10^6 cells/mL in IEMM containing 10 μM RI. Cells were seeded at 5000 cells/well into multi-well plates and incubated for overnight at 37° C., 95% humidity and 5% CO2 prior to assay.
4. Membrane Potential Dye, Enteroid Assay A
Enteroid cells were incubated with test compound in IEMM for 18-24 hours at 37° C., 95% humidity and 5% CO2. […] Briefly, cells were washed 5 times in Bath 1 Buffer. Bath 1 Dye Solution was added, and the cells were incubated for 25 min at room temperature. Following dye incubation, cells were washed 3 times in Chloride Free Dye Solution. Chloride transport was initiated by addition of Chloride Free Dye Stimulation Solution and the fluorescence signal was read for 15 min. […] Chloride transport was then expressed as a percentage of the chloride transport following treatment with 3 μM N-[(6-amino-2-pyridyl)sulfonyl]-6-(3-fluoro-5-isobutoxy-phenyl)-2-[(4S)-2,2,4-trimethylpyrrolidin-1-yl]pyridine-3-carboxamide, 3 μM (R)-1-(2,2-difluorobenzo[d][1,3]dioxol-5-yl)-N-(1-(2,3-dihydroxypropyl)-6-fluoro-2-(1-hydroxy-2-methylpropan-2-yl)-1H-indol-5-yl)cyclopropanecarboxamide and 300 nM acute N-[2,4-bis(1,1-dimethylethyl)-5-hydroxyphenyl]-1,4-dihydro-4-oxoquinoline-3-carboxamide triple combination control (% Activity).

Chain of CFTR (P13569 with tags, fused parts or gaps DEL508-508): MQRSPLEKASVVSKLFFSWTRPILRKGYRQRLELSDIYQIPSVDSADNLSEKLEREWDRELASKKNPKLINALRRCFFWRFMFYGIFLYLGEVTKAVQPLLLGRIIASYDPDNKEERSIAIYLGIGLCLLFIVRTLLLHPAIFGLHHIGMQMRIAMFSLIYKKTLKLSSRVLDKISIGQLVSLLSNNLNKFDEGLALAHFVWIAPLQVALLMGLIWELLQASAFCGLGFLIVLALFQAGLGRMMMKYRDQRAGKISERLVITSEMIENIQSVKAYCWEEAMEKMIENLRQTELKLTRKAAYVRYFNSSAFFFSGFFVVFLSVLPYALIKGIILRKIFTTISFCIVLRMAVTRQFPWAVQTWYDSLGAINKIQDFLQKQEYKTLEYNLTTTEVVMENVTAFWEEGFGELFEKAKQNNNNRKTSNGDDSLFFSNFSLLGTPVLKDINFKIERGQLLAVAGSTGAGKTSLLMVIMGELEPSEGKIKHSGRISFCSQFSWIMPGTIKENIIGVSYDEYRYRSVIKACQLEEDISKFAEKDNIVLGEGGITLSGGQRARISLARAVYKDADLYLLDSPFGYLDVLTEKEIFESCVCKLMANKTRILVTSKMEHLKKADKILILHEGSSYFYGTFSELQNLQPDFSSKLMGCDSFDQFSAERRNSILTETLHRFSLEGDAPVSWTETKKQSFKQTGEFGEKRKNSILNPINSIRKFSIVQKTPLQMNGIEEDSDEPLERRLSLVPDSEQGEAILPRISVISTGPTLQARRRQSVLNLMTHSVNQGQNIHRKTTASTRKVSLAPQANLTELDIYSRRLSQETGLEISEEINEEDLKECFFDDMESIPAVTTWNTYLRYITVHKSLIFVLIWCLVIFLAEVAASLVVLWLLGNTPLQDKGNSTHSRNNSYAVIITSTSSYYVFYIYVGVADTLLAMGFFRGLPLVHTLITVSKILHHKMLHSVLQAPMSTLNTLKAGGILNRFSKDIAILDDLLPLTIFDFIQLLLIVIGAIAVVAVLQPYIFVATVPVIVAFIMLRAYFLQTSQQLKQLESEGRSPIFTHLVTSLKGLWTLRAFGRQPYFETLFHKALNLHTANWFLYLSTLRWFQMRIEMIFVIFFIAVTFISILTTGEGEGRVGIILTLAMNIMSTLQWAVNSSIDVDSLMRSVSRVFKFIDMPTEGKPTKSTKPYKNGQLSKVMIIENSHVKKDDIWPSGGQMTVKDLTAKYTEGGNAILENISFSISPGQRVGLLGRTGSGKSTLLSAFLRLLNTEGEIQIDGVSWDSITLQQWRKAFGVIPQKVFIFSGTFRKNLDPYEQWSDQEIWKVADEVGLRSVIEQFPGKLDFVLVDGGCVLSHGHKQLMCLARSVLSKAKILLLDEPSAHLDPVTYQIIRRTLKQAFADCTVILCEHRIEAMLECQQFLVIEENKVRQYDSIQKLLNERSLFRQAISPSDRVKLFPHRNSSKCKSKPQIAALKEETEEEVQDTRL

Row | SMILES | Ent. A Max Activity (Table 7) | EC50 (Table 7) | Ent. A Max Activity (Table 6) | EC50 (Table 6)
1 | Cc1cccc(C)c1-c1cc2nc(n1)NS(=O)(=O)c1cccc(c1)C(=O)N(C)C[C@@H](c1cccc(C(C)(C)C)c1)O2 (single isomer, unassigned) [Compound 17, 10-(3-tert-butylphenyl)-6-(2,6-dimethylphenyl)-12-methyl-2,2-dioxo-9-oxa-2λ^6-thia-3,5,12,19-tetrazatricyclo[12.3.1.14,8]nonadeca-1(18),4(19),5,7,14,16-hexaen-13-one] | +++ (+++ is >60%) | < 1000 nM | – | –
2 | Cc1cccc(C)c1-c1cc2nc(n1)NS(=O)(=O)c1cccc(c1)C(=O)N(C)[C@H](c1ccc(C(C)(C)C)cc1)CO2 [Compound 1010] | ++ (++ is 30-60%) | < 1000 nM | – | –
3 | Cc1cccc(C)c1-c1cc2nc(n1)NS(=O)(=O)c1cccc(c1)C(=O)N(CC1CCOCC1)[C@H](CC(C)C)CO2 [Compound 352] | – | – | +++ (+++ is >60%) | < 1000 nM
4 | Cc1cccc(C)c1-c1cc2nc(n1)NS(=O)(=O)c1cccc(c1)C(=O)N(C)C[C@H](c1cccc(C(C)(C)C)c1)O2 (single isomer, unassigned) [Compound 15, 10-(3-tert-butylphenyl)-6-(2,6-dimethylphenyl)-12-methyl-2,2-dioxo-9-oxa-2λ^6-thia-3,5,12,19-tetrazatricyclo[12.3.1.14,8]nonadeca-1(18),4(19),5,7,14,16-hexaen-13-one] | + (+ is <30%) | 3000 to 30000 nM | – | –
5 | Cc1cccc(C)c1-c1cc2nc(n1)NS(=O)(=O)c1cccc(c1)C(=O)N(Cc1ccc(P(C)(C)=O)cc1)[C@H](CC(C)C)CO2 [Compound 88, (11R)-6-(2,6-Dimethylphenyl)-12-[(4-dimethylphosphorylphenyl)methyl]-11-isobutyl-2,2-dioxo-9-oxa-2λ^6-thia-3,5,12,19-tetrazatricyclo[12.3.1.14,8]nonadeca-1(18),4(19),5,7,14,16-hexaen-13-one] | – | – | ++ (++ is 30-60%) | 1000 to 3000 nM
6 | Cc1cccc(C)c1-c1cc2nc(n1)NS(=O)(=O)c1cccc(c1)C(=O)N(CCC1CCOCC1)[C@H](C)CO2 [Compound 988] | + (+ is <30%) | 3000 to 30000 nM | – | –
7 | Cc1cccc(C)c1-c1cc2nc(n1)NS(=O)(=O)c1cccc(c1)C(=O)N(CCC(C)C)C(CCC1(C(F)(F)F)CC1)CO2 (centres unmarked) [Compound 688] | – | – | +++ (+++ is >60%) | < 1000 nM
8 | CNC(=O)c1ccc(CN2C(=O)c3cccc(c3)S(=O)(=O)Nc3nc(cc(-c4c(C)cccc4C)n3)OC[C@H]2CC2(C(F)(F)F)CC2)cc1 [Compound 683] | +++ (+++ is >60%) | < 1000 nM | – | –
9 | Cc1cccc(C)c1-c1cc2nc(n1)NS(=O)(=O)c1cccc(c1)C(=O)N(Cc1ccc(N3C[C@@H](O)[C@@H](O)C3)nc1)[C@H](CC(C)C)CO2 [Compound 953] | +++ (+++ is >60%) | < 1000 nM | – | –
10 | Cc1cccc(C)c1-c1cc2nc(n1)NS(=O)(=O)c1cccc(c1)C(=O)N(C)CC(c1ccc(-c3ccc(C(C)(C)C)cc3)cn1)O2 (centres unmarked) [Compound 511] | – | – | +++ (+++ is >60%) | < 1000 nM
11 | Cc1cccc(C)c1-c1cc2nc(n1)NS(=O)(=O)c1cccc(c1)C(=O)N(Cc1ccc(N3CCC(F)(F)CC3)nc1)[C@H](CC(C)C)CO2 [Compound 937] | +++ (+++ is >60%) | < 1000 nM | – | –
12 | Cc1cccc(C)c1-c1cc2nc(n1)NS(=O)(=O)c1cccc(c1)C(=O)N(C)C[C@H](c1ccccc1)O2 [Compound 673] | – | – | + (+ is <30%) | 3000 to 30000 nM
13 | Cc1cccc(C)c1-c1cc2nc(n1)NS(=O)(=O)c1cccc(c1)C(=O)N(CCC1CCOCC1)CC(c1ccc(C(C)(C)C)cc1)O2 (centres unmarked) [Compound 342] | – | – | +++ (+++ is >60%) | < 1000 nM
14 | CNc1ccc(CN2C(=O)c3cccc(c3)S(=O)(=O)Nc3nc(cc(-c4c(C)cccc4C)n3)OC[C@H]2CC(C)C)cn1 [Compound 857] | – | – | +++ (+++ is >60%) | < 1000 nM
15 | Cc1cccc(C)c1-c1cc2nc(n1)NS(=O)(=O)c1cccc(c1)C(=O)N(Cc1ccc(C(=O)O)nc1)[C@H](CC(C)C)CO2 [Compound 94, 5-{[(11R)-6-(2,6-dimethylphenyl)-11-(2-methylpropyl)-2,2,13-trioxo-9-oxa-2λ^6-thia-3,5,12,19-tetraazatricyclo[12.3.1.14,8]nonadeca-1(18),4(19),5,7,14,16-hexaen-12-yl]methyl}pyridine-2-carboxylic acid] | +++ (+++ is >60%) | 1000 to 3000 nM | – | –
16 | COc1cccc(CN2C(=O)c3cccc(c3)S(=O)(=O)Nc3nc(cc(-c4c(C)cccc4C)n3)OC[C@H]2CC(C)C)n1 [Compound 423] | – | – | +++ (+++ is >60%) | < 1000 nM
17 | COCC1CCN(c2ccc(CN3C(=O)c4cccc(c4)S(=O)(=O)Nc4nc(cc(-c5c(C)cccc5C)n4)OC[C@H]3CC(C)C)cn2)CC1 [Compound 970] | ++ (++ is 30-60%) | < 1000 nM | – | –
18 | Cc1cccc(C)c1-c1cc2nc(n1)NS(=O)(=O)c1cccc(c1)C(=O)N(CCc1ccccc1)[C@H](CC(C)C)CO2 [Compound 355] | – | – | +++ (+++ is >60%) | < 1000 nM
19 | Cc1cccc(C)c1-c1cc2nc(n1)NS(=O)(=O)c1cccc(c1)C(=O)N(CC1CCCN1C(=O)OC(C)(C)C)[C@H](CC(C)C)CO2 (some centres unmarked) [Compound 346] | – | – | +++ (+++ is >60%) | < 1000 nM
20 | Cc1cccc(C)c1-c1cc2nc(n1)NS(=O)(=O)c1cccc(c1)C(=O)N(C)CCO2 [Compound 979] | – | – | + (+ is <30%) | –
21 | Cc1cccc(C)c1-c1cc2nc(n1)NS(=O)(=O)c1cccc(c1)C(=O)N(CCOC(C)(C)C)[C@H](CC(C)C)CO2 [Compound 427] | – | – | +++ (+++ is >60%) | < 1000 nM
22 | Cc1cccc(C)c1-c1cc2nc(n1)NS(=O)(=O)c1cccc(c1)C(=O)N(Cc1ccc(N3CCC(O)CC3)nc1)[C@H](CC(C)C)CO2 [Compound 966] | +++ (+++ is >60%) | < 1000 nM | – | –
23 | COC(=O)c1ccc(CN2C(=O)c3cccc(c3)S(=O)(=O)Nc3nc(cc(-c4c(C)cccc4C)n3)OC[C@H]2CC(C)C)cn1 [Compound 95, Methyl 5-{[(11R)-6-(2,6-Dimethylphenyl)-11-(2-methylpropyl)-2,2,13-trioxo-9-oxa-2λ^6-thia-3,5,12,19-tetraazatricyclo[12.3.1.14,8]nonadeca-1(18),4(19),5,7,14,16-hexaen-12-yl]methyl}pyridine-2-carboxylate] | +++ (+++ is >60%) | < 1000 nM | – | –
24 | Cc1cccc(C)c1-c1cc2nc(n1)NS(=O)(=O)c1cccc(c1)CN(Cc1cccnc1OCC1CC1)[C@H](CC(C)C)CO2 [Compound 1028] | +++ (+++ is >60%) | < 1000 nM | – | –
